From patent publication US4994465A, “Antihyperlipidemic and antiatherosclerotic trisubstituted urea compounds” (Warner-Lambert Company, priority 1990, dated 1991)

target: T1, acyl-CoA:cholesterol acyltransferase (ACAT) (Oryctolagus cuniculus, UniProt G1SFD9); test: ACAT inhibition in vitro: radiolabeled cholesterol oleate formed from radiolabeled oleic acid in rabbit intestinal microsomes; type: biochemical; settings: concentration required to inhibit 50% expression of the enzyme
T1 construct: a tissue preparation containing rabbit intestinal microsomes; from tissue; host or cells: rabbit intestinal microsomes
T1 sequence (G1SFD9 1-524): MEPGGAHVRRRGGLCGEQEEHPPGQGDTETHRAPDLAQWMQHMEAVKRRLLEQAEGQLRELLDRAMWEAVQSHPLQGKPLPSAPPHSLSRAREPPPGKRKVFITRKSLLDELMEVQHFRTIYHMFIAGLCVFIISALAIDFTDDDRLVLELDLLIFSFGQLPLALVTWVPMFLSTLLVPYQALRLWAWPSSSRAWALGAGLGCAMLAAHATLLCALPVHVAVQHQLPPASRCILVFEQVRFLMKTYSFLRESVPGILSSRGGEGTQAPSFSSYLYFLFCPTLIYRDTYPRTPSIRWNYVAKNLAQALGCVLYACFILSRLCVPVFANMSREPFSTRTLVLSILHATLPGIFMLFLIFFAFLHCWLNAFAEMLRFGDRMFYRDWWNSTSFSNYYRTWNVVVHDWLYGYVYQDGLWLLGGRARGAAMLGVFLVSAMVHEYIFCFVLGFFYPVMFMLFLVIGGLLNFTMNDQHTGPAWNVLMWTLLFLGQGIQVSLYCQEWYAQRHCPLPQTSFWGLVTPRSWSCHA
Experimental: The ability of representative compounds of the present invention to inhibit ACAT was measured using an in vitro test more fully described in Field, F. J. and Salone, R. G., Biochemica et Biophysica 712:557-570 (1982). The test assesses the ability of a test compound to inhibit the acylation of cholesterol by oleic acid by measuring the amount of radiolabeled cholesterol oleate formed from radiolabeled oleic acid in a tissue preparation containing rabbit intestinal microsomes.
The data appear in Table 1 where they are expressed in IC50 values; i.e., the concentration of test compound required to inhibit 50% […] of the enzyme.

Row | SMILES | IC50 [µM]
1 | O=C(Nc1c(Cl)cccc1Cl)N(Cc1ccccc1)CC1(c2ccccc2)CCCC1 [Example 5, N'-(2,6-dichlorophenyl)-N-benzyl-N-[(1-phenylcyclopentyl)methyl]urea] | 0.051
2 | CCCCCCCN(CC1(c2ccccc2)CCCC1)C(=O)Nc1ccc(F)cc1F [Example 11, N'-(2,4-difluorophenyl)-N-heptyl-N-[(1-phenylcyclopentyl)methyl]urea] | 0.31
3 | Cc1cccc(C)c1NC(=O)N(Cc1ccccc1)CC(c1ccccc1)c1ccccc1 [Example 2, N'-[(2,6-dimethyl)phenyl]-N-benzyl-N-[(2,2-diphenyl)ethyl]urea] | 1.37
4 | Cc1cccc(C)c1NC(=O)N(Cc1ccccc1)CC1(c2ccccc2)CCCC1 [Example 8, N'-[(2,6-dimethyl)phenyl]-N-benzyl-N-[(1-phenylcyclopentyl)methyl]urea] | 0.059
5 | Cc1cc(C)c(NC(=O)N(Cc2ccccc2)CC2(c3ccccc3)CCCC2)c(C)c1 [Example 6, N'-(2,4,6-trimethylphenyl)-N-benzyl-N-[(1-phenylcyclopentyl)methyl]urea] | 0.08
6 | CCCCCCCN(CC1(c2ccccc2)CCCC1)C(=O)Nc1c(C)cccc1C [Example 10] | 0.061
7 | CCCCCCCN(CC(c1ccccc1)c1ccccc1)C(=O)Nc1c(C)cccc1C [Example 12, N'-[(2,6-dimethyl)phenyl]-N-heptyl-N-[(2,2-diphenyl)ethyl]urea] | 1.3
8 | O=C(Nc1ccc(F)cc1F)N(Cc1ccccc1)CC(c1ccccc1)c1ccccc1 [Example 1, N'-(2,4-difluorophenyl)-N-benzyl-N-[(2,2-diphenyl)ethyl]urea] | 0.29
9 | CC(C)c1cccc(C(C)C)c1NC(=O)N(Cc1ccccc1)CC(c1ccccc1)c1ccccc1 [Example 3, N'-[2,6-bis(1-methylethyl)phenyl]-N-benzyl-N-[(2,2-diphenyl)ethyl]urea] | 1.3
10 | O=C(Nc1ccc(F)cc1F)N(Cc1ccccc1)CC1(c2ccccc2)CCCC1 [Example 4, N'-(2,4-difluorophenyl)-N-benzyl-N-[(1-phenylcyclopentyl)methyl]urea] | 0.09
11 | CCCCCCCN(CC(c1ccccc1)c1ccccc1)C(=O)Nc1ccc(F)cc1F [Example 13, N'-(2,4-difluorophenyl)-N-heptyl-N-[(2,2-diphenyl)ethyl]urea] | 0.17
12 | CC(C)c1cccc(C(C)C)c1NC(=O)N(Cc1ccccc1)CC1(c2ccccc2)CCCC1 [Example 7, N'-[2,6-bis(1-methylethyl)phenyl]-N-benzyl-N-[(1-phenylcyclopentyl)methyl]urea] | 0.17
13 | CCCCCCCN(CC1(c2ccccc2)CCCC1)C(=O)Nc1c(C(C)C)cccc1C(C)C [Example 9, N'-[2,6-bis(1-methylethyl)phenyl]-N-heptyl-N-[(1phenylcyclopentyl)methyl]urea] | 0.11
